# Data from patent US20040072992A1, “Novel peptide capable of specifically acting on biological membrane” (priority 2002, published 2004).
# Where a SMILES comes first, the peptide text is derived from it. Where no end group is shown, it is not given here.
# Key:
# B. subtilis IFO13722 = details: IFO13722, 18 h
# B. sereus IFO3457 = details: 18 h
# S. aureus IFO13276 = details: IFO13276, 18 h
# S. aureus JCM2413 = details: JCM2413, 18 h
# E. coli JCM1649 = details: JCM1649, 18 h
# E. coli CR-3 = details: CR-3, 18 h
# E. coli CE-273 = details: CE-273, 18 h
# S. enteritidis ATCC1891 = details: ATCC1891, 18 h
# S. enteritidis ATC14028 = details: ATC14028, 18 h
Compound,MIC (B. subtilis IFO13722),MIC (B. sereus IFO3457),MIC (S. aureus IFO13276),MIC (S. aureus JCM2413),MIC (E. coli JCM1649),MIC (E. coli CR-3),MIC (E. coli CE-273),MIC (S. enteritidis ATCC1891),MIC (S. enteritidis ATC14028)
CC(C)C[C@H](NC(=O)[C@H](C)N)C(=O)N[C@@H](CCCNC(=N)N)C(=O)O [ALR] (H-Ala-Leu-Arg-OH),>200 µM,>200 µM,>200 µM,>200 µM,>200 µM,>200 µM,>200 µM,>200 µM,>200 µM
CC(C)[C@H](NC(=O)[C@@H](N)CCCCN)C(=O)NCC(=O)O [KVG] (H-Lys-Val-Gly-OH),>800 µM,>800 µM,>800 µM,800 µM,>800 µM,800 µM,800 µM,>800 µM,800 µM
CC(C)C[C@H](NC(=O)[C@@H](NC(=O)[C@@H](N)CCCCN)C(C)C)C(=O)O [KVL] (H-Lys-Val-Leu-OH),800 µM,800 µM,800 µM,400 µM,>800 µM,800 µM,800 µM,>800 µM,800 µM
CC(C)[C@H](NC(=O)[C@@H](N)CCCNC(=N)N)C(=O)NCC(=O)O [RVG] (H-Arg-Val-Gly-OH),>800 µM,>800 µM,>800 µM,800 µM,>800 µM,800 µM,800 µM,>800 µM,800 µM
CC(C)C[C@H](NC(=O)[C@@H](NC(=O)[C@@H](N)CCCNC(=N)N)C(C)C)C(=O)O [RVL] (H-Arg-Val-Leu-OH),>800 µM,>800 µM,>800 µM,>800 µM,>800 µM,800 µM,>800 µM,>800 µM,800 µM
"ALRALRALRALRALR [ALR5, ALRALRALRALRALR]",25 µM,100 µM,400 µM,200 µM,100 µM,,100 µM,100 µM,
"GWALR [Ribo-2, GWALR]",>800 µM,>800 µM,>800 µM,800 µM,>800 µM,800 µM,>800 µM,800 µM,800 µM
KNRKGIAGMAKKLLGNKWKLM [mastWR],50 µM,50 µM,50 µM,50 µM,50 µM,25 µM,12.5 µM,12.5 µM,25 µM
"KVLALRL [KVL+, KVL ALRL]",>200 µM,>200 µM,>200 µM,>200 µM,>200 µM,>200 µM,3.1 µM,>200 µM,>200 µM
"KVLINWKGIAAMAKKII [KVL-mastX, KVL INWKGIAAMAKKII]",25 µM,>200 µM,>200 µM,50 µM,100 µM,50 µM,25 µM,100 µM,>200 µM
"KVLKVLKVL [KVL3, KVLKVLKVL]",>200 µM,>200 µM,>200 µM,>200 µM,>200 µM,>200 µM,>200 µM,>200 µM,>200 µM
"RLAWG [Ribo-1, RLAWG]",>800 µM,>800 µM,>800 µM,800 µM,>800 µM,800 µM,>800 µM,>800 µM,800 µM
